ChEMBL document CHEMBL5241106, “Discovery of a Dual Tubulin and Poly(ADP-Ribose) Polymerase-1 Inhibitor by Structure-Based Pharmacophore Modeling, Virtual Screening, Molecular Docking, and Biological Evaluation” (J Med Chem, 2021)
Activity calls are given as the source filed them. No cut-off for these calls is given here.

Experiments:
[1] = tested on: SK-OV-3; test: Cytotoxicity against human SK-OV-3 cells assessed as inhibition of cell growth incubated for 72 hrs by MTT assay; format: functional, cell-based; conditions: SK-OV-3, 72 h
[2] = tested on: MDA-MB-231; test: Induction of apoptosis in human MDA-MB-231 cells assessed as viable cells at 12.5 uM incubated for 48 hrs by Annexin V-FITC/PI staining based flow cytometry (reference value: 91.4%); format: functional; conditions: read-out: Activity
[3] = tested on: MDA-MB-231; test: Induction of apoptosis in human MDA-MB-231 cells assessed as necrotic cells at 2.5 uM incubated for 48 hrs by Annexin V-FITC/PI staining based flow cytometry (reference value: 1.86%); format: functional
[4] = tested on: MDA-MB-231; test: Induction of apoptosis in human MDA-MB-231 cells assessed as late apoptotic cells at 12.5 uM incubated for 48 hrs by Annexin V-FITC/PI staining based flow cytometry (reference value: 5.06%); format: functional
[5] = molecular target: Serine/threonine-protein kinase pim-1 (Homo sapiens, UniProt P11309); test: Inhibition of PIM-1 (unknown origin)
[6] = tested on: MDA-MB-231; test: Induction of cell cycle arrest in human MDA-MB-231 cells assessed as increase in p-cdc2 expression at 0.5 to 12.5 uM incubated for 48 hrs by Western blot analysis; format: functional, cell-based; conditions: dose 0.5-12.5 µM
[7] = tested on: MDA-MB-231; test: Induction of apoptosis in human MDA-MB-231 cells assessed as early apoptotic cells at 12.5 uM incubated for 48 hrs by Annexin V-FITC/PI staining based flow cytometry (reference value: 1.71%); format: functional
[8] = Toxicity in BALB/c mouse xenografted with human MDA-MB-231 cells assessed as effect on RBC count at 1 to 5 mg/kg, ip administered every 4 days for 7 times measured at 48 hrs post-last administration; format: organism-based, Erythrocyte; conditions: in vivo, 720 h, dose 1-5 mg/kg, time 30 day
[9] = molecular target: T1, Tubulin (Homo sapiens) (UniProt P68371+Q9H4B7+P0DPH7+P68366+Q13509+Q71U36+P04350+Q3ZCM7+P07437+P68363+Q9BQE3+Q6PEY2+Q13885+Q9BVA1+Q9BUF5); test: Inhibition of tubulin polymerization (unknown origin) at 10 uM by turbidimetric analysis; format: protein-complex assay
[10] = Toxicity in BALB/c mouse xenografted with human MDA-MB-231 cells assessed as effect on platelet count at 1 to 5 mg/kg, ip administered every 4 days for 7 times measured at 48 hrs post-last administration; format: organism-based; conditions: in vivo, 720 h, dose 1-5 mg/kg, time 30 day
[11] = tested on: MDA-MB-231; test: Induction of apoptosis in human MDA-MB-231 cells assessed as viable cells at 0.5 uM incubated for 48 hrs by Annexin V-FITC/PI staining based flow cytometry (reference value: 91.4%); format: functional; conditions: read-out: Activity
[12] = tested on: MDA-MB-231; test: Induction of apoptosis in human MDA-MB-231 cells assessed as necrotic cells at 0.5 uM incubated for 48 hrs by Annexin V-FITC/PI staining based flow cytometry (reference value: 1.86%); format: functional
[13] = molecular target: Poly [ADP-ribose] polymerase 1 (Homo sapiens, UniProt P09874); test: Inhibition of PARP1 (unknown origin) using [3H]NAD+ as substrate incubated for 15 mins by scintillation counting analysis; conditions: read-out: IC50
[14] = molecular target: T1, Tubulin (Homo sapiens); test: Inhibition of tubulin polymerization in human MCF-10A cells assessed as destruction of normal microtubule network at 0.5 to 12.5 uM incubated for 48 hrs by immunofluorescence assay; format: cell-based; conditions: dose 0.5-12.5 µM
[15] = tested on: MDA-MB-231; test: Induction of cell cycle arrest in human MDA-MB-231 cells assessed as decrease in cyclin B1 expression at 0.5 to 12.5 uM incubated for 48 hrs by western blot analysis; format: functional, cell-based; conditions: dose 0.5-12.5 µM
[16] = molecular target: Tubulin (Bos taurus) (UniProt Q6B856+Q862L2+Q862F3); test: Inhibition of [3H]colchicine binding to tubulin to bovine brain tubulin at 5 to 50 uM by competitive binding assay; format: tissue-based; conditions: dose 5-50 µM
[17] = […] of angiogenesis in human HUVEC cells assessed as inhibition of capillary tube formation at 12.5 uM incubated for 8 hrs by inverted microscopic analysis; format: functional; design: scale not given: the % may be the effect or the level left
[18] = Hepatotoxicity in BALB/c mouse xenografted with human MDA-MB-231 cells assessed as effect on blood ALT level at 1 to 5 mg/kg, ip administered every 4 days for 7 times measured at 48 hrs post-last administration; format: toxicity, organism-based; conditions: in vivo, 720 h, dose 1-5 mg/kg, time 30 day
[19] = Toxicity in BALB/c mouse xenografted with human MDA-MB-231 cells assessed as change in lung morphological changes at 1 to 5 mg/kg, ip administered every 4 days for 7 times measured at 48 hrs post-last administration by H and E staining based fluorescence microscopic analysis; format: organism-based; conditions: in vivo, 720 h, dose 1-5 mg/kg, time 30 day
[20] = tested on: MDA-MB-231; test: Induction of apoptosis in human MDA-MB-231 cells assessed as early apoptotic cells at 2.5 uM incubated for 48 hrs by Annexin V-FITC/PI staining based flow cytometry (reference value: 1.71%); format: functional
[21] = tested on: MDA-MB-231; test: Inhibition of colony formation in human MDA-MB-231 cells measured after 10 days by crystal violet staining based analysis; format: functional, cell-based; conditions: dose 0.5-12.5 µM, time 10.0 day
[22] = Toxicity in BALB/c mouse xenografted with human MDA-MB-231 cells assessed as effect on WBC count at 1 to 5 mg/kg, ip administered every 4 days for 7 times measured at 48 hrs post-last administration; format: organism-based; conditions: in vivo, 720 h, dose 1-5 mg/kg, time 30 day
[23] = tested on: MDA-MB-231; test: Anticancer activity against human MDA-MB-231 cells xenografted in BALB/c mouse assessed as reduction in tumor weight at 5 mg/kg, ip administered for every 4 days for 7 times; format: functional, organism-based; conditions: time 28.0 day
[24] = tested on: HepG2; test: Cytotoxicity against human HepG2 cells assessed as inhibition of cell growth incubated for 72 hrs by MTT assay; format: functional, cell-based; conditions: HepG2, 72 h
[25] = tested on: MDA-MB-231; test: Induction of apoptosis in human MDA-MB-231 cells assessed as late apoptotic cells at 0.5 uM incubated for 48 hrs by Annexin V-FITC/PI staining based flow cytometry (reference value: 5.06%); format: functional
[26] = tested on: MDA-MB-231; test: Induction of apoptosis in human MDA-MB-231 cells assessed as increase in cleaved caspase-3 level at 0.5 to 12.5 uM incubated for 48 hrs by western blot analysis; format: functional, cell-based; conditions: dose 0.5-12.5 µM
[27] = tested on: MDA-MB-231; test: Induction of apoptosis in human MDA-MB-231 cells assessed as necrotic cells at 12.5 uM incubated for 48 hrs by Annexin V-FITC/PI staining based flow cytometry (reference value: 1.86%); format: functional

O=c1[nH]c(/C=C/c2cccc(F)c2)nc2ccccc12
IC50 [1]: 1700 nM
viability at 12.5 µM [2]: 83.4%
Activity [3]: 1%
Activity [4]: 8.97%
IC50 [5]: > 10000 nM
Activity [6]: Active
Activity [7]: 3.32%
Activity [8]: Non-Toxic
inhibition [9]: 91%
Activity [10]: Non-Toxic
viability at 0.5 µM [11]: 90.6%
Activity [12]: 0.88%
IC50 [13]: 480 nM
inhibition [14]: inactive
Activity [15]: Active
inhibition [16]: Active
Activity [17]: 100%
Activity [18]: Non-Toxic
Activity [19]: Non-Toxic
Activity [20]: 2.23%
inhibition [21]: Dose-Dependent Effect
Activity [22]: Non-Toxic
Activity [23]: Active
IC50 [24]: 900 nM
Activity [25]: 6.39%
Activity [26]: Active
Activity [27]: 4.29%
